In test [1] the test system is S-adenosylmethionine-VI riboswitch. Put plainly: Binding affinity to SA sensor chip-immobilized Bifidobacterium angulatum SAM-VI riboswitch aptamer assessed as binding constant (Kon) by SPR analysis. Format: nucleic-acid assay.
The subject of test [2] is PreQ1 riboswitch. Put plainly: Binding affinity to Tte preQ1 riboswitch aptamer assessed as binding constant (Koff) by ITC analysis. Format: nucleic-acid assay. The note with it: Caldanaerobacter subterraneus; subsp. tengcongensis. Background: Isothermal titration calorimetry measures the heat released or taken up as one component is titrated into another.
For test [3], the target named is PreQ1 riboswitch. Put plainly: Binding affinity to SA sensor chip-immobilized Tte preQ1 riboswitch aptamer assessed as dissociation constant by SPR analysis. The test is classed as nucleic-acid assay, Caldanaerobacter subterraneus, subsp. tengcongensis. In general terms: In SPR one partner is held on a chip, and binding of the other changes the refractive index at the surface.

The target in test [4] is PreQ1 riboswitch. Put plainly: Binding affinity to Tte preQ1 riboswitch aptamer assessed as dissociation constant by ITC analysis. The test is classed as nucleic-acid assay, Caldanaerobacter subterraneus, subsp. tengcongensis.
Test [5] has as its system PreQ1 riboswitch. Put plainly: Binding affinity to SA sensor chip-immobilized Tte preQ1 riboswitch aptamer assessed as binding constant (Kon) by SPR analysis. The settings on record: Caldanaerobacter subterraneus; subsp. tengcongensis. The test is classed as nucleic-acid assay.
For test [6], the target named is S-adenosylmethionine-VI riboswitch. The test is described as follows: Binding affinity to SA sensor chip-immobilized Bifidobacterium angulatum SAM-VI riboswitch aptamer assessed as dissociation constant by SPR analysis. Format: nucleic-acid assay.
Test [7] deals with PreQ1 riboswitch. The test is described as follows: Binding affinity to SA sensor chip-immobilized Tte preQ1 riboswitch aptamer assessed as binding constant (Koff) by SPR analysis. Format: nucleic-acid assay. The note with it: Caldanaerobacter subterraneus; subsp. tengcongensis.
Test [8] addresses PreQ1 riboswitch. The test is described as follows: Binding affinity to SA sensor chip-immobilized Tte preQ1 riboswitch aptamer assessed as dissociation constant by SPR steady-state analysis. Format: nucleic-acid assay, Caldanaerobacter subterraneus, subsp. tengcongensis.
For test [9], the target named is S-adenosylmethionine-VI riboswitch. Put plainly: Binding affinity to SA sensor chip-immobilized Bifidobacterium angulatum SAM-VI riboswitch aptamer assessed as dissociation constant by SPR steady-state analysis. Format: nucleic-acid assay.
In test [10] the target is PreQ1 riboswitch. Put plainly: Binding affinity to Tte preQ1 riboswitch aptamer assessed as dissociation constant by MST analysis. Format: nucleic-acid assay, Caldanaerobacter subterraneus, subsp. tengcongensis.
For test [11], the system named is S-adenosylmethionine-VI riboswitch. Put plainly: Binding affinity to SA sensor chip-immobilized Bifidobacterium angulatum SAM-VI riboswitch aptamer assessed as binding constant (Koff) by SPR analysis. Format: nucleic-acid assay.
Test [12] has as its system PreQ1 riboswitch. Put plainly: Binding affinity to Tte preQ1 riboswitch aptamer assessed as binding constant (Kon) by ITC analysis. The test is classed as nucleic-acid assay. The settings on record: Caldanaerobacter subterraneus; subsp. tengcongensis.
The subject of test [13] is PreQ1 riboswitch. Put plainly: Binding affinity to Tte preQ1 riboswitch aptamer assessed as change in enthalpy by ITC analysis. The test is classed as nucleic-acid assay. The settings on record: Caldanaerobacter subterraneus; subsp. tengcongensis.
For test [14], the system named is PreQ1 riboswitch. Put plainly: Binding affinity to Tte preQ1 riboswitch aptamer assessed as change in entropy by ITC analysis. Format: nucleic-acid assay. The note with it: Caldanaerobacter subterraneus; subsp. tengcongensis.
The test system of test [15] is PreQ1 riboswitch. The test is described as follows: Binding affinity to Tte preQ1 riboswitch assessed as change in Gibb's free energy by ITC analysis. The test is classed as nucleic-acid assay. The settings on record: Caldanaerobacter subterraneus; subsp. tengcongensis.
The target in test [16] is PreQ1 riboswitch. Put plainly: Binding affinity to Alexa Fluor 647-labeled Tte preQ1 riboswitch assessed as dissociation constant by fluorescence based analysis. The test is classed as nucleic-acid assay, Caldanaerobacter subterraneus, subsp. tengcongensis.
Another test has as its target TAR RNA. Put plainly: Binding affinity to Alexa Fluor 488-labeled HIV-1 TAR RNA assessed as dissociation constant by fluorescence based analysis. Format: nucleic-acid assay, Human immunodeficiency virus 1.
In test [17] the test system is Ribozyme. The test is described as follows: Binding affinity to Tetrahymena group I ribozyme (unknown origin) assessed as binding constant (Kon). Format: nucleic-acid assay.
Test [18] deals with Ribozyme. Put plainly: Binding affinity to Tetrahymena group I ribozyme (unknown origin) assessed as dissociation constant. Format: nucleic-acid assay.
Test [19] has as its system Ribozyme. The test is described as follows: Binding affinity to Tetrahymena group I ribozyme (unknown origin) assessed as binding constant (Koff). Format: nucleic-acid assay.
For test [20], the target named is S-adenosylmethionine-VI riboswitch. The test is described as follows: Binding affinity to Bifidobacterium angulatum SAM-VI riboswitch assessed as dissociation constant by ITC analysis. Format: nucleic-acid assay.
Test [21] has as its system S-adenosylmethionine-VI riboswitch. Put plainly: Binding affinity to Bifidobacterium angulatum SAM-VI riboswitch assessed as assessed as binding constant (Kon) by ITC analysis. The test is classed as nucleic-acid assay.
The target of a further test is Precursor microRNA-372. The test is described as follows: Binding affinity to pre-miRNA-372 beacon (unknown origin) assessed as dissociation constant measured after 4 hrs by fluorescence based analysis. Format: nucleic-acid assay.

Molecules are shown by their SMILES.

By Kd is commonly meant the constant that tells how readily two partners part at equilibrium. As usually defined, the koff is the first-order rate constant of dissociation. With `NCCCNC[C@H]1O[C@@H](n2cnc3c(N)ncnc32)[C@H](O)[C@@H]1O`, the K was 1.48 10^4/M/s in test [1]; 2.38 10^-2/s in the test on PreQ1 riboswitch [2]; 1.28 10^4/Ms in the test on PreQ1 riboswitch [5]; 4.59 10^-2/s in [11]; 1.36 10^4/M/s in the test with PreQ1 riboswitch [12]. For the same compound, the Kd was 4.17 µM at PreQ1 riboswitch [3]; 1.73 µM on PreQ1 riboswitch [4]; 3.1 µM in test [6]; 15.9 µM at PreQ1 riboswitch [8]; 6.05 µM in [9]; 9.75 µM at PreQ1 riboswitch [10]. Further, the dissociation rate constant (koff) with PreQ1 riboswitch [7] amounted to 0.0481 s⁻¹. In addition, the deltaH with PreQ1 riboswitch [13] was -20.9 kcal/mol. Also, the -TdeltaS in the test on PreQ1 riboswitch [14] was determined as 13 kcal/mol. Also, the deltaG in the test with PreQ1 riboswitch [15] was -7.89 kcal/mol.
In the case of `NCCOc1ccc2oc3ccccc3c2c1`, the equilibrium dissociation constant (Kd) on PreQ1 riboswitch [16] came to 0.5 µM.
With `CC(=O)Nc1nc(-c2cccc(NC(=O)[C@H]3C[C@H](OC(=O)[C@@H](N)CCCN)[C@@H](COC(=O)[C@@H](N)CCCCN)O3)c2)cs1`, the Kd on TAR RNA amounted to 8 µM.
`Nc1nc2c(ncn2[C@H]2C[C@H](N)[C@@H](CO)O2)c(=O)[nH]1`: the K in the test on Ribozyme [17] was > 2.1 10^7/M/min; in the test with Ribozyme [19], above 2 min⁻¹. Further, the Kd at Ribozyme [18] is 0.094 µM.
Turning to `C[S+](CC[C@H](N)C(=O)[O-])C[C@H]1O[C@@H](n2cnc3c(N)ncnc32)[C@H](O)[C@@H]1O` (stereo partly specified) [ADEMETIONINE], the K with PreQ1 riboswitch [2] was 1.42 10^-2/s; in the test on PreQ1 riboswitch [5] it was 2.98 10^3/Ms; in test [21], 2.46 10^4/M/s; in the test on PreQ1 riboswitch [12], 2.13 10^4/M/s. Moreover, the Kd on PreQ1 riboswitch [3] is 3.72 µM; at PreQ1 riboswitch [4], 0.671 µM; in test [20], 0.33 µM; at PreQ1 riboswitch [8] it was 4.53 µM; at PreQ1 riboswitch [10], 0.718 µM. Besides, the deltaH in the test on PreQ1 riboswitch [13] is -14.5 kcal/mol. In the test with PreQ1 riboswitch [14], the -TdeltaS is 6.09 kcal/mol. For the same compound, in the test on PreQ1 riboswitch [15], the deltaG is -8.44 kcal/mol.
Turning to `Nc1ncnc2c1ncn2[C@@H]1O[C@H](CSCC[C@H](N)C(=O)O)[C@@H](O)[C@H]1O` [S-ADENOSYLHOMOCYSTEINE], the K with PreQ1 riboswitch [2] was 4.58 10^-2/s; in the test on PreQ1 riboswitch [5], 3.88 10^2/Ms; in test [21], 5.5 10^3/M/s; in the test on PreQ1 riboswitch [12], 3.57 10^3/M/s. Moreover, the Kd at PreQ1 riboswitch [3] came out at 150 µM; on PreQ1 riboswitch [4] it was 14 µM; in test [20], 10.9 µM; on PreQ1 riboswitch [8], 121 µM; on PreQ1 riboswitch [10], 34.4 µM. In addition, the koff in the test on PreQ1 riboswitch [7] worked out at 0.054 s⁻¹. Moreover, in the test with PreQ1 riboswitch [13], the deltaH was -8.27 kcal/mol. For the same compound, the -TdeltaS with PreQ1 riboswitch [14] was 1.63 kcal/mol. Besides, the deltaG in the test on PreQ1 riboswitch [15] was -6.64 kcal/mol.
Regarding `Nc1ncnc2c1ncn2[C@@H]1O[C@H](CNCC[C@H](N)C(=O)O)[C@@H](O)[C@H]1O`, the results for the K in the test on PreQ1 riboswitch [2], with PreQ1 riboswitch [5] and in the test with PreQ1 riboswitch [12] were 4.66 10^-2/s, 2.94 10^3/Ms and 1.54 10^4/M/s, respectively. In addition, the Kd stood at 12.3 µM on PreQ1 riboswitch [3], 3.31 µM at PreQ1 riboswitch [4], 20.7 µM on PreQ1 riboswitch [8] and 33.3 µM at PreQ1 riboswitch [10]. In addition, the koff with PreQ1 riboswitch [7] amounted to 0.0361 s⁻¹. For the same compound, in the test with PreQ1 riboswitch [13], the deltaH was -22.8 kcal/mol. Moreover, the -TdeltaS with PreQ1 riboswitch [14] came out at 15.3 kcal/mol. In addition, the deltaG in the test with PreQ1 riboswitch [15] is -7.48 kcal/mol.
Turning to `NC[C@@H]1O[C@H](O[C@H]2[C@@H](O)[C@H](O[C@@H]3[C@@H](O)[C@H](N)C[C@H](N)[C@H]3O[C@H]3O[C@H](CN)[C@@H](O)[C@H](O)[C@H]3N)O[C@@H]2CO)[C@H](N)[C@@H](O)[C@@H]1O` [FRAMYCETIN], the dissociation constant (Kd) at Precursor microRNA-372 came to 7.4 µM.
With `CC(=O)Nc1csc(-c2cccc(NC(=O)CCc3cn(C[C@H]4O[C@@H](O[C@@H]5[C@@H](O)[C@H](N)C[C@H](N)[C@H]5O[C@H]5O[C@H](CN)[C@@H](O)[C@H](O)[C@H]5N)[C@H](O)[C@@H]4O[C@H]4O[C@@H](CN)[C@@H](O)[C@H](O)[C@H]4N)nn3)c2)n1`, the equilibrium dissociation constant (Kd) on Precursor microRNA-372 is 0.016 µM.
For the compound `Nc1nc2c(ncn2[C@@H]2O[C@H](CO)[C@@H](O)[C@H]2O)c(=O)[nH]1` [GUANOSINE], the K in the test with Ribozyme [17] was 4 10^5/M/min; with Ribozyme [19] it was 44 min⁻¹. The dissociation constant (Kd) at Ribozyme [18] came to 110 µM.
